The results in this text go back to patent publication US10023570B2 (Array BioPharma, Inc., priority 2015, dated 2018).

Where a name gives a salt, the structure may show the parent alone. Where only a bound is given, the exact number is not on record here.

Sequence of human KDR protein in HEK-293 cells (P35968 20-1356): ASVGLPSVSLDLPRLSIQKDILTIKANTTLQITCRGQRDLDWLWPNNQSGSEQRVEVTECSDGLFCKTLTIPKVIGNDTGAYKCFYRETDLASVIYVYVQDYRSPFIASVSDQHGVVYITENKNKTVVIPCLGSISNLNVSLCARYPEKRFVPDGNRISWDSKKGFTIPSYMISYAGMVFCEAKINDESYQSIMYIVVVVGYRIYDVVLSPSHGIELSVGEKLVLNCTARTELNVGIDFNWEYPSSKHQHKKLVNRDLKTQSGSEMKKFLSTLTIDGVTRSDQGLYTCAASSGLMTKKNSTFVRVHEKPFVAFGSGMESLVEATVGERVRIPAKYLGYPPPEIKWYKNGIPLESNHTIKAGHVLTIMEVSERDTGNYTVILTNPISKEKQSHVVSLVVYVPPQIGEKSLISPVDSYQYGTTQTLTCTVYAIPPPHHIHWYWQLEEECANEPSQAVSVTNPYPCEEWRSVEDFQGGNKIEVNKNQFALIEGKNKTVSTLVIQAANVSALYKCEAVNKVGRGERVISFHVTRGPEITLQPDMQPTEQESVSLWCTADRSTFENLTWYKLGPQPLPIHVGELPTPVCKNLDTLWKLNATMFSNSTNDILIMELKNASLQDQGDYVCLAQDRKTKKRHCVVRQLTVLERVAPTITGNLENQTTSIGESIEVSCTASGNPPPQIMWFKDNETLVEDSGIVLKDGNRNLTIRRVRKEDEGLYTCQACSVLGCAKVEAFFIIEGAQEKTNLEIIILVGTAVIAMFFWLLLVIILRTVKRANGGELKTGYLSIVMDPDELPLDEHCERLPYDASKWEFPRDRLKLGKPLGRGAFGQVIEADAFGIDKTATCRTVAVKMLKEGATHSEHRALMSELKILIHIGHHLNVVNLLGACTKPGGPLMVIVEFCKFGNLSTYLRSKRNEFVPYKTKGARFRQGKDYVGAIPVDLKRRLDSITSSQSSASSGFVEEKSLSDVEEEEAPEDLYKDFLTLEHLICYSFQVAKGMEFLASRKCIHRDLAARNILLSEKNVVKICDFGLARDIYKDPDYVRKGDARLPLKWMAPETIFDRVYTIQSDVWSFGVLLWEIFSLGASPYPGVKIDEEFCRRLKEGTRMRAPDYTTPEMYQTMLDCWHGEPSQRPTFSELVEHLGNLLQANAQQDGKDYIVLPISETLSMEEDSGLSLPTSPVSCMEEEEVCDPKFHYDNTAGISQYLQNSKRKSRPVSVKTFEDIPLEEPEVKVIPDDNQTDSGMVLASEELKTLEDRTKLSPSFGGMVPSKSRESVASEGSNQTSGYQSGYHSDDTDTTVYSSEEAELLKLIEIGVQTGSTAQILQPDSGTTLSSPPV

One assay deals with human KDR protein in HEK-293 cells (Homo sapiens (Human), UniProt P35968). Put plainly: KDR Cell Assay (phospho-KDR in HEK-293 cells expressing inducible KDR). As to conditions: pKDR Cell HEK 10% FBS IC50, HEK-293 cells expressing inducible KDR, VEGF stimulated. The format is cell-based. Put shortly:
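HEK-293 cells with inducible human KDR were treated with compound for 1 h in DMEM (0.25% DMSO final), then lysed. Phospho-KDR was quantified by Meso Scale immunoassay, expressed as percent of control, and IC50 taken where a 4-parameter logistic fit crossed 50 POC.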
Take `Cn1cc(-c2cc(-c3ccc(N4CCCC5(CCNCC5)C4)nc3)c3c(C#N)cnn3c2)cn1` [Example 540, 4-(6-(2,9-diazaspiro[5.5]undecan-2-yl)pyridin-3-yl)-6-(1-methyl-1H-pyrazol-4-yl)pyrazolo[1,5-a]pyridine-3-carbonitrile dihydrochloride]: it took 1220 nM to reach half-maximal inhibition (IC50).
For the compound `CN1CCCC2(CCN(c3ccc(-c4cc(-c5cnn(C)c5)cn5ncc(C#N)c45)cn3)CC2)C1` [Example 556, 6-(1-methyl-1H-pyrazol-4-yl)-4-(6-(2-methyl-2,9-diazaspiro[5.5]undecan-9-yl)pyridin-3-yl)pyrazolo[1,5-a]pyridine-3-carbonitrile], the IC50 (commonly the concentration needed to halve the response being measured) amounted to 1900 nM.
In turn, `C[C@H](c1ccccc1)N1CCN(c2ccc(-c3cc(-c4cnn(C)c4)cn4ncc(C#N)c34)cn2)CC1` [Example 421, (R)-6-(1-methyl-1H-pyrazol-4-yl)-4-(6-(4-(1-phenylethyl)piperazin-1-yl)pyridin-3-yl)pyrazolo[1,5-a]pyridine-3-carbonitrile dihydrochloride] showed an IC50 of 1620 nM.
With `Cn1cc(-c2cc(-c3ccc(N4CCN(Cc5ccc(Cl)cc5)CC4)nc3)c3c(C#N)cnn3c2)cn1` [Example 425, 4-(6-(4-(4-chlorobenzyl)piperazin-l-yl)pyridin-3-yl)-6-(1-methyl-1H-pyrazol-4-yl)pyrazolo[1,5-a]pyridine-3-carbonitrile], the IC50 was 916 nM.
As for `COc1ccc(CN2CCN(c3ccc(-c4cc(-c5cnn(C)c5)cn5ncc(C#N)c45)cn3)CC2)cn1` [Example 474, 4-(6-(4-((6-methoxypyridin-3-yl)methyl)piperazin-1-yl)pyridin-3-yl)-6-(1-methyl-1H-pyrazol-4-yl)pyrazolo[1,5-a]pyridine-3-carbonitrile], the IC50 worked out at 305 nM.
On to `CCN(CC)C(=O)N1CC2(CCN(c3ccc(-c4cc(-c5cnn(C)c5)cn5ncc(C#N)c45)cn3)CC2)C1` [Example 502, 7-(5-(3-cyano-6-(1-methyl-1H-pyrazol-4-yl)pyrazolo[1,5-a]pyridin-4-yl)pyridin-2-yl)-N,N-diethyl-2,7-diazaspiro[3.5]nonane-2-carboxamide], for which the midpoint of inhibition, the IC50, lay at 437 nM.
`CCc1cnn2cc(-c3cnn(C)c3)cc(-c3ccc(N4CCN(C(=O)[C@H](O)c5ccccc5)CC4)nc3)c12` [Example 658, (R)-1-(4-(5-(3-ethyl-6-(1-methyl-1H-pyrazol-4-yl)pyrazolo[1,5-a]pyridin-4-yl)pyridin-2-yl)piperazin-1-yl)-2-hydroxy-2-phenylethanone] showed an IC50 of 1840 nM.
Still for that read-out and setting: to `Cn1cc(-c2cc(-c3ccc(N4CCN(Cc5cccnc5)CC4)nc3)c3c(C#N)cnn3c2)cn1` [Example 471, 6-(1-methyl-1H-pyrazol-4-yl)-4-(6-(4-(pyridin-3-ylmethyl)piperazin-1-yl)pyridine-3-yl)pyrazolo[1,5-a]pyridine-3-carbonitrile] belongs 1580 nM; to `Cn1cc(-c2cc(-c3ccc(N4CCC5(CCN(C(=O)OC(C)(C)C)CC5)C4)nc3)c3c(C#N)cnn3c2)cn1` [Example 517, tert-butyl 2-(5-(3-cyano-6-(1-methyl-1H-pyrazol-4-yl)pyrazolo[1,5-a]pyridin-4-yl)pyridin-2-yl)-2,8-diazaspiro[4.5]decane-8-carboxylate], 1790 nM; to `Cn1cc(-c2cc(-c3ccc(N4CCN(C(=O)N5CC[C@H](c6ccccc6)C5)CC4)nc3)c3c(C#N)cnn3c2)cn1` [Example 378, (R)-6-(1-methyl-1H-pyrazol-4-yl)-4-(6-(4-(3-phenylpyrrolidine-1-carbonyl)piperazin-1-yl)pyridin-3-yl)pyrazolo[1,5-a]pyridine-3-carbonitrile], 467 nM.
As for `Cc1nccc(CN2CCN(c3ccc(-c4cc(-c5cnn(C)c5)cn5ncc(C#N)c45)cn3)CC2)n1` [Example 467, 6-(1-methyl-1H-pyrazol-4-yl)-4-(6-(4-((2-methylpyrimidin-4-yl)methyl)piperazin-l-yl)pyridin-3-yl)pyrazolo[1,5-a]pyridine-3-carbonitrile], the IC50 came out at 1540 nM.
The compound `Cn1cc(-c2cc(-c3ccc(N4CCC5(CCNCC5)CC4)nc3)c3c(C#N)cnn3c2)cn1` [Example 539, 4-(6-(3,9-diazaspiro[5.5]undecan-3-yl)pyridin-3-yl)-6-(1-methyl-1H-pyrazol-4-yl)pyrazolo[1,5-a]pyridine-3-carbonitrile dihydrochloride] yielded an IC50 of 1640 nM.
The compound `Cn1cc(-c2cc(-c3ccc(N4CC5(CCCN5C(=O)OCc5ccccc5)C4)nc3)c3c(C#N)cnn3c2)cn1` [Example 525, benzyl 2-(5-(3-cyano-6-(1-methyl-1H-pyrazol-4-yl)pyrazolo[1,5-a]pyridin-4-yl)pyridin-2-yl)-2,5-diazaspiro[3.4]octane-5-carboxylate 2,2,2-trifluoroacetate] gave an IC50 of 1580 nM.
As to `CO[C@](C(=O)N1CCN(c2ccc(-c3cc(-c4cnn(C)c4)cn4ncc(C#N)c34)cn2)CC1)(c1ccccc1)C(F)(F)F` [Example 371, (S)-6-(1-methyl-1H-pyrazol-4-yl)-4-(6-(4-(3,3,3-trifluoro-2-methoxy-2-phenylpropanoyl)piperazin-1-yl)pyridin-3-yl)pyrazolo[1,5-a]pyridine-3-carbonitrile], it took 1910 nM to reach half-maximal inhibition (IC50).
Take `CCOCCN1CCN(c2ccc(-c3cc(-c4cnn(C)c4)cn4ncc(C#N)c34)cn2)CC1` [Example 397, 4-(6-(4-(2-ethoxyethyl)piperazin-1-yl)pyridin-3-yl)-6-(1-methyl-1H-pyrazol-4-yl)pyrazolo[1,5-a]pyridine-3-carbonitrile]: the IC50 came to 1500 nM.

Staying with this assay, now noted: pKDR Cell HEK 10% FBS IC50, HEK-293 cells expressing inducible KDR, VEGF stimulated, 10% FBS.
For the compound `Cn1cc(-c2cc(-c3ccc(N4CCN(C(=O)c5ccccn5)CC4)nc3)c3c(C#N)cnn3c2)cn1` [Example 72, 6-(1-methyl-1H-pyrazol-4-yl)-4-(6-(4-picolinoylpiperazin-1-yl)pyridin-3-yl)pyrazolo[1,5-a]pyridine-3-carbonitrile], the midpoint of inhibition, the IC50, lay at 99.9 nM.
As to `CN(C)C(C(=O)N1CCN(c2ccc(-c3cc(-c4cnn(C)c4)cn4ncc(C#N)c34)cn2)CC1)c1ccc(F)cc1` (stereo not shown) [Example 351, 4-(6-(4-(2-(dimethylamino)-2-(4-fluorophenyl)acetyl)piperazin-1-yl)pyridin-3-yl)-6-(1-methyl-1H-pyrazol-4-yl)pyrazolo[1,5-a]pyridine-3-carbonitrile], 1760 nM corresponded to half-maximal inhibition (IC50).
Same read-out and setting: the value for `Cn1cc(-c2cc(-c3ccc(N4CCN(C(=O)N5C6CCC5CC6)CC4)nc3)c3c(C#N)cnn3c2)cn1` [Example 95, 4-(6-(4-(7-azabicyclo[2.2.1]heptane-7-carbonyl)piperazin-1-yl)pyridin-3-yl)-6-(1-methyl-1H-pyrazol-4-yl)pyrazolo[1,5-a]pyridine-3-carbonitrile] was 1310 nM.
For the compound `Cn1cc(-c2cc(-c3ccc(N4CCN([C@@H]5CCC[C@H]5O)CC4)nc3)c3c(C#N)cnn3c2)cn1` [Example 163, 4-(6-(4-((1r,2r)-2-hydroxycyclopentyl)piperazin-1-yl)pyridin-3-yl)-6-(1-methyl-1H-pyrazol-4-yl)pyrazolo[1,5-a]pyridine-3-carbonitrile], the IC50 worked out at 991 nM.
Regarding `Cn1cc(-c2cc(-c3ccc(N4CCN(C(=O)[C@@H](O)Cc5ccccc5)CC4)nc3)c3c(C#N)cnn3c2)cn1` [Example 4], inhibition was half-maximal at 328 nM (IC50).
For the compound `Cn1cc(-c2cc(-c3ccc(N4CCN([C@@H]5COC[C@H]5O)CC4)nc3)c3c(C#N)cnn3c2)cn1` [Example 159, 4-(6-(4-((3r,4s)-4-hydroxytetrahydrofuran-3-yl)piperazin-1-yl)pyridin-3-yl)-6-(1-methyl-1H-pyrazol-4-yl)pyrazolo[1,5-a]pyridine-3-carbonitrile], the IC50 was found to be 1300 nM.
In turn, `COCC1(C(=O)N2CCN(c3ccc(-c4cc(-c5cnn(C)c5)cn5ncc(C#N)c45)cn3)CC2)CCC1` [Example 354, 4-(6-(4-(1-(methoxymethyl)cyclobutanecarbonyl)piperazin-1-yl)pyridin-3-yl)-6-(1-methyl-1H-pyrazol-4-yl)pyrazolo[1,5-a]pyridine-3-carbonitrile] registered an IC50 of 1290 nM.
Regarding `CO[C@H](C(=O)N1CCN(c2ccc(-c3cc(-c4cnn(C)c4)cn4ncc(C#N)c34)cn2)CC1)c1ccccc1` [Example 84], the IC50 worked out at 1260 nM.
On the same count and under the same terms, to `Cn1cc(-c2cc(-c3ccc(N4CCN(C(=O)N5CCC[C@H]5C#N)CC4)nc3)c3c(C#N)cnn3c2)cn1` [Example 112, (S)-4-(6-(4-(2-cyanopyrrolidine-1-carbonyl)piperazin-1-yl)pyridin-3-yl)-6-(1-methyl-1H-pyrazol-4-yl)pyrazolo[1,5-a]pyridine-3-carbonitrile] belongs 869 nM; to `Cn1cc(-c2cc(-c3ccc(N4CCN(C[C@H](O)c5cccc(Cl)c5)CC4)nc3)c3c(C#N)cnn3c2)cn1` [Example 153, (R)-4-(6-(4-(2-(3-chlorophenyl)-2-hydroxyethyl)piperazin-1-yl)pyridin-3-yl)-6-(1-methyl-1H-pyrazol-4-yl)pyrazolo[1,5-a]pyridine-3-carbonitrile], 164 nM.
`Cn1cc(-c2cc(-c3ccc(N4CCN(C(=O)[C@H](O)c5ccccc5)CC4)nc3)c3ccnn3c2)cn1` [Example 313, (R)-2-hydroxy-1-(4-(5-(6-(1-methyl-1H-pyrazol-4-yl)pyrazolo[1,5-a]pyridin-4-yl)pyridin-2-yl)piperazin-1-yl)-2-phenylethanone] came in with an IC50 not below 5000 nM.
With `Cn1cc(-c2cc(-c3ccc(N4CCN(C(=O)N5CCC6(CC6)C5)CC4)nc3)c3c(C#N)cnn3c2)cn1` [Example 117, 4-(6-(4-(5-azaspiro[2.4]heptane-5-carbonyl)piperazin-1-yl)pyridin-3-yl)-6-(1-methyl-1H-pyrazol-4-yl)pyrazolo[1,5-a]pyridine-3-carbonitrile], the midpoint of inhibition, the IC50, lay at 354 nM.
In the case of `Cn1cc(-c2cc(-c3ccc(N4CCN(C(=O)C5(c6cccc(F)c6)CC5)CC4)nc3)c3c(C#N)cnn3c2)cn1` [Example 349, 4-(6-(4-(1-(3-fluorophenyl)cyclopropanecarbonyl)piperazin-1-yl)pyridin-3-yl)-6-(1-methyl-1H-pyrazol-4-yl)pyrazolo[1,5-a]pyridine-3-carbonitrile], half-maximal inhibition (IC50) required 404 nM.
